Measurements published in US10633407B2, “14-membered ketolides and methods of their preparation and use” (President and Fellows of Harvard College, priority 2014, dated 2020).
In brackets after ≈: the same amount, converted by molar mass.

What was measured:
Assay in all cases: CLSI broth dilution MIC determination
Type in all cases: cell-based
[1] = tested on: A. baumannii imipenem-resistant; details: Gram-negative
P. aeruginosa ATCC 27853 = details: P. aeruginosa ATCC 27853; Gram-negative
S. pyogenes ATCC 19615 = details: S. pyogenes ATCC 19615; Gram-positive
E. faecalis ATCC 29212 = details: E. faecalis ATCC 29212; Gram-positive
K. pneumoniae KPC-2 = details: Gram-negative
[2] = tested on: P. aeruginosa HPA101-1477; details: Gram-negative
A. baumannii ATCC 19606 = details: A. baumannii ATCC 19606; Gram-negative
A. baumannii IMP-4 = details: Gram-negative
[3] = tested on: H. influenzae Erythro >4, Azithro 1; details: H. influenzae Erythro >4, Azithro 1; Gram-negative
Description: MIC data was collected for the novel macrolides that this platform has produced against over 21 unique strains of B. subtilis, E. coli, S. aureus, S. pneumoniae, and H. influenzae, including several multidrug-resistant strains, with a special focus on macrolide resistant mechanisms (vide supra). […] CLSI standard procedures for broth dilution MIC determination were used. […] These genotypes can be constitutive or inducible.

S. aureus ATCC 29213 = details: S. aureus ATCC 29213; Gram-positive
Procedure, shortened: (§1)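 Method: CLSI broth dilution; endpoint: MIC. Macrolide controls azithromycin and solithromycin added in many cases.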

S. aureus MRSA: USA100 = details: S. aureus MRSA: USA100; Gram-positive
Procedure, shortened: as §1

E. coli NDM-1 = details: Gram-negative
Procedure, shortened: as §1

S. pneumoniae ATCC 49619 = details: S. pneumoniae ATCC 49619; Gram-positive
Procedure, shortened: as §1

H. influenzae ATCC49247 = details: Gram-negative
Procedure, shortened: as §1

[4] = tested on: S. pneumoniae mef A genotype (second strain so labelled); details: Gram-positive
Procedure, shortened: as §1

E. coli ATCC 25922 = details: E. coli ATCC 25922; Gram-negative
Procedure, shortened: as §1

[5] = tested on: S. pneumoniae erm B + mef A genotype; details: S. pneumoniae erm B + mef A genotype; Gram-positive
Procedure, shortened: as §1

S. aureus USA600, GISA = details: S. aureus USA600, GISA; Gram-positive
Procedure, shortened: as §1

S. aureus erm A genotype = details: S. aureus erm A genotype; Gram-positive
Procedure, shortened: as §1

S. aureus MRSA: USA300 = details: S. aureus MRSA: USA300; Gram-positive
Procedure, shortened: as §1

E. coli TEM-1 = details: E. coli TEM-1; Gram-negative
Procedure, shortened: as §1

E. coli CTX-M-14 = details: Gram-negative
Procedure, shortened: as §1

K. pneumoniae TEM-10 = details: Gram-negative
[6] = tested on: E. faecalis Vancomycin-resistant; details: E. faecalis Vancomycin-resistant; Gram-positive
K. pneumoniae ATCC 10031 = details: K. pneumoniae ATCC 10031; Gram-negative
[7] = tested on: S. pyogenes Macrolide-resistant; details: S. pyogenes Macrolide-resistant; Gram-positive
K. pneumoniae SHV-12 = details: Gram-negative
[8] = tested on: A. baumannii chromosomal class C; details: Gram-negative

CC[C@H]1OC(=O)[C@H](C)C(=O)[C@H](C)[C@@H](O[C@@H]2OC(C)CC(N(C)C)C2O)[C@](C)(OC)C[C@@H](C)C(=O)[C@H](C)[C@H]2N(C/C=C/Cn3cc(-c4cccc(N)n4)nn3)C(=O)O[C@]12C (stereo partly shown) [FSM-100364]
MIC [1]: 4 µg/mL (≈ 4.84 µM) | MIC (P. aeruginosa ATCC 27853): > 32 µg/mL | MIC (S. pyogenes ATCC 19615): < 0.0312 µg/mL | MIC (E. faecalis ATCC 29212): < 0.0312 µg/mL | MIC (K. pneumoniae KPC-2): > 32 µg/mL | MIC [2]: > 32 µg/mL | MIC (A. baumannii ATCC 19606): 8 µg/mL (≈ 9.69 µM) | MIC (A. baumannii IMP-4): > 32 µg/mL | MIC [3]: 0.5 µg/mL (≈ 0.605 µM) | MIC (S. aureus ATCC 29213): < 0.0312 µg/mL | MIC (S. aureus MRSA: USA100): > 32 µg/mL | MIC (E. coli NDM-1): > 32 µg/mL | MIC (S. pneumoniae ATCC 49619): < 0.0312 µg/mL | MIC (H. influenzae ATCC49247): 2 µg/mL (≈ 2.42 µM) | MIC [4]: 0.25 µg/mL (≈ 0.303 µM) | MIC (E. coli ATCC 25922): 16 µg/mL (≈ 19.4 µM) | MIC [5]: 0.125 µg/mL | MIC (S. aureus USA600, GISA): > 32 µg/mL | MIC (S. aureus erm A genotype): > 32 µg/mL | MIC (S. aureus MRSA: USA300): 2 µg/mL (≈ 2.42 µM) | MIC (E. coli TEM-1): > 32 µg/mL | MIC (E. coli CTX-M-14): > 32 µg/mL | MIC (K. pneumoniae TEM-10): 32 µg/mL (≈ 38.7 µM) | MIC [6]: > 32 µg/mL | MIC (K. pneumoniae ATCC 10031): 8 µg/mL (≈ 9.69 µM) | MIC [7]: < 0.0312 µg/mL | MIC (K. pneumoniae SHV-12): > 32 µg/mL | MIC [8]: 8 µg/mL (≈ 9.69 µM)

CC[C@H]1OC(=O)[C@H](C)C(=O)[C@H](C)[C@@H](O[C@@H]2OC(C)CC(N(C)C)C2O)[C@](C)(OC)C[C@@H](C)C(=O)[C@H](C)[C@H]2N(C/C=C/Cn3nnc(-c4ccccn4)n3)C(=O)O[C@]12C (stereo partly shown) [FSM-100371]
MIC [1]: > 32 µg/mL | MIC (P. aeruginosa ATCC 27853): > 32 µg/mL | MIC (S. pyogenes ATCC 19615): < 0.0312 µg/mL | MIC (E. faecalis ATCC 29212): < 0.0312 µg/mL | MIC (K. pneumoniae KPC-2): > 32 µg/mL | MIC [2]: > 32 µg/mL | MIC (A. baumannii ATCC 19606): 16 µg/mL (≈ 19.7 µM) | MIC (A. baumannii IMP-4): > 32 µg/mL | MIC [3]: 2 µg/mL (≈ 2.46 µM) | MIC (S. aureus ATCC 29213): < 0.0312 µg/mL | MIC (S. aureus MRSA: USA100): > 32 µg/mL | MIC (E. coli NDM-1): > 32 µg/mL | MIC (S. pneumoniae ATCC 49619): < 0.0312 µg/mL | MIC (H. influenzae ATCC49247): 2 µg/mL (≈ 2.46 µM) | MIC [4]: 0.125 µg/mL (≈ 0.154 µM) | MIC (E. coli ATCC 25922): > 32 µg/mL | MIC [5]: 0.25 µg/mL | MIC (S. aureus USA600, GISA): > 32 µg/mL | MIC (S. aureus erm A genotype): > 32 µg/mL | MIC (S. aureus MRSA: USA300): 4 µg/mL (≈ 4.93 µM) | MIC (E. coli TEM-1): > 32 µg/mL | MIC (E. coli CTX-M-14): > 32 µg/mL | MIC (K. pneumoniae TEM-10): > 32 µg/mL | MIC [6]: > 32 µg/mL | MIC (K. pneumoniae ATCC 10031): 8 µg/mL (≈ 9.85 µM) | MIC [7]: 0.0625 µg/mL (≈ 0.077 µM) | MIC (K. pneumoniae SHV-12): > 32 µg/mL | MIC [8]: 32 µg/mL (≈ 39.4 µM)

CC[C@H]1OC(=O)[C@H](C)C(=O)[C@H](C)[C@@H](O[C@@H]2OC(C)CC(N(C)C)C2O)[C@](C)(OC)C[C@@H](C)C(=O)[C@H](C)[C@H]2N(C/C=C/Cn3nnnc3-c3ccccn3)C(=O)O[C@]12C (stereo partly shown) [FSM-100376]
MIC [1]: 32 µg/mL (≈ 39.4 µM) | MIC (P. aeruginosa ATCC 27853): 32 µg/mL (≈ 39.4 µM) | MIC (S. pyogenes ATCC 19615): < 0.0312 µg/mL | MIC (E. faecalis ATCC 29212): < 0.0312 µg/mL | MIC (K. pneumoniae KPC-2): > 32 µg/mL | MIC [2]: > 32 µg/mL | MIC (A. baumannii ATCC 19606): 16 µg/mL (≈ 19.7 µM) | MIC (A. baumannii IMP-4): > 32 µg/mL | MIC [3]: 1 µg/mL (≈ 1.23 µM) | MIC (S. aureus ATCC 29213): < 0.0312 µg/mL | MIC (S. aureus MRSA: USA100): > 32 µg/mL | MIC (E. coli NDM-1): > 32 µg/mL | MIC (S. pneumoniae ATCC 49619): < 0.0312 µg/mL | MIC (H. influenzae ATCC49247): 1 µg/mL (≈ 1.23 µM) | MIC [4]: < 0.0312 µg/mL | MIC (E. coli ATCC 25922): 8 µg/mL (≈ 9.85 µM) | MIC [5]: 0.25 µg/mL | MIC (S. aureus USA600, GISA): > 32 µg/mL | MIC (S. aureus erm A genotype): > 32 µg/mL | MIC (S. aureus MRSA: USA300): 8 µg/mL (≈ 9.85 µM) | MIC (E. coli TEM-1): 16 µg/mL (≈ 19.7 µM) | MIC (E. coli CTX-M-14): > 32 µg/mL | MIC (K. pneumoniae TEM-10): 32 µg/mL (≈ 39.4 µM) | MIC [6]: > 32 µg/mL | MIC (K. pneumoniae ATCC 10031): 8 µg/mL (≈ 9.85 µM) | MIC [7]: < 0.0312 µg/mL | MIC (K. pneumoniae SHV-12): > 32 µg/mL | MIC [8]: 16 µg/mL (≈ 19.7 µM)

CC[C@H]1OC(=O)[C@@](C)(F)C(=O)[C@H](C)[C@@H](O[C@@H]2OC(C)CC(N(C)C)C2O)[C@](C)(OC)C[C@@H](C)C(=O)[C@H](C)[C@H]2N(C/C=C/Cn3nnnc3-c3ccccn3)C(=O)O[C@]12C (stereo partly shown) [FSM-100386]
MIC [1]: > 32 µg/mL | MIC (P. aeruginosa ATCC 27853): > 32 µg/mL | MIC (S. pyogenes ATCC 19615): < 0.0312 µg/mL | MIC (E. faecalis ATCC 29212): < 0.0312 µg/mL | MIC (K. pneumoniae KPC-2): > 32 µg/mL | MIC [2]: > 32 µg/mL | MIC (A. baumannii ATCC 19606): 32 µg/mL (≈ 38.6 µM) | MIC (A. baumannii IMP-4): > 32 µg/mL | MIC [3]: 2 µg/mL (≈ 2.41 µM) | MIC (S. aureus ATCC 29213): < 0.0312 µg/mL | MIC (S. aureus MRSA: USA100): > 32 µg/mL | MIC (E. coli NDM-1): > 32 µg/mL | MIC (S. pneumoniae ATCC 49619): < 0.0312 µg/mL | MIC (H. influenzae ATCC49247): 4 µg/mL (≈ 4.82 µM) | MIC [4]: 0.0625 µg/mL (≈ 0.0753 µM) | MIC (E. coli ATCC 25922): 16 µg/mL (≈ 19.3 µM) | MIC [5]: 0.25 µg/mL | MIC (S. aureus USA600, GISA): > 32 µg/mL | MIC (S. aureus erm A genotype): > 32 µg/mL | MIC (S. aureus MRSA: USA300): 4 µg/mL (≈ 4.82 µM) | MIC (E. coli TEM-1): 16 µg/mL (≈ 19.3 µM) | MIC (E. coli CTX-M-14): > 32 µg/mL | MIC (K. pneumoniae TEM-10): > 32 µg/mL | MIC [6]: > 32 µg/mL | MIC (K. pneumoniae ATCC 10031): 8 µg/mL (≈ 9.64 µM) | MIC [7]: 0.0625 µg/mL (≈ 0.0753 µM) | MIC (K. pneumoniae SHV-12): > 32 µg/mL | MIC [8]: 32 µg/mL (≈ 38.6 µM)
